Patent publication US20070155679A1, “USE OF BR[…] THE TREATMENT OF […] ASSOCIATED WITH H[…] NOVEL MEDICAMENT COMBINATIONS” (priority 2000, published 2007)

System: hypertrophic cardiomyopathy
Assay: Cat with severe hypertrophic cardiomyopathy treated with cilobradine
Assay type: in vivo
Conditions: 0.3 mg/kg per os, 2x daily
Source text: The new use of the bradycardiac substances according to the invention was investigated with the if channel blocker cilobradine by way of example, using the following method:
The hypertrophic cardiomyopathy in the cat serves as a model for the corresponding disease in humans (Kittleson et al., Circulation 91, 3172-3180 (1999)).

In the case of `COc1ccc(CCN2CCC[C@H](CN3CCc4cc(OC)c(OC)cc4CC3=O)C2)cc1OC` [cilobradine], the “clinical symptoms (relief from pain, normal ECG, return of normal physiological activity pattern)” value (cat with severe hypertrophic cardiomyopathy) was “significant improvement in clinical symptoms” and the “myocardial hypertrophy at follow-up” value (cat, follow-up after one year and after about 2 years' treatment) was “regression in myocardial hypertrophy”.
